Broadly, the surface tension liquid-gas is the work needed to enlarge the surface of a liquid by unit area. By mass density is commonly meant the mass of a sample divided by its volume.

The results in this text go back to the NIST ThermoML archive (doi:10.1016/j.jct.2013.04.015).

SMILES strings stand for the structures. Numbers after ± are expanded uncertainties.

The conditions of this data set: for surface tension liquid-gas: Wilhelmy plate method; for mass density: 101 kPa, Liquid, Vibrating tube method.

On to `CCCCn1cc[n+](C)c1.C[C@H](O)C(=O)[O-]` [1-butyl-3-methylimidazolium L-lactate], for which the surface tension liquid-gas reads like this: (293.15 K) 43.14 ± 0.37 mN/m; (298.15 K) 42.92 ± 0.37 mN/m; (303.15 K) 42.79 ± 0.37 mN/m; (308.15 K) 42.37 ± 0.37 mN/m; (313.15 K) 42.19 ± 0.37 mN/m; (318.15 K) 42.01 ± 0.37 mN/m. The surface tension liquid-gas reads like this: (323.15 K) 41.64 ± 0.37 mN/m; (333.15 K) 41.04 ± 0.36 mN/m; (343.15 K) 40.56 ± 0.36 mN/m. The mass density was 1115.3 ± 0.5 kg/m3 (293.15 K); 1111.2 ± 0.5 kg/m3 (298.15 K); 1107.5 ± 0.5 kg/m3 (303.15 K); 1104.2 ± 0.5 kg/m3 (308.15 K); 1100.5 ± 0.5 kg/m3 (313.15 K); 1097.7 ± 0.5 kg/m3 (318.15 K). Further, the mass density was 1094.1 ± 0.5 kg/m3 (323.15 K), 1086.1 ± 0.5 kg/m3 (333.15 K) and 1079.8 ± 0.5 kg/m3 (343.15 K).

For `CCCCO` [butan-1-ol], the surface tension liquid-gas by setting is: (298.15 K) 23.89 ± 0.3 mN/m; (308.15 K) 23.46 ± 0.3 mN/m; (318.15 K) 22.62 ± 0.3 mN/m. Also, the mass density is, setting by setting: (298.15 K) 805.7 ± 0.4 kg/m3; (308.15 K) 798 ± 0.4 kg/m3; (318.15 K) 790.1 ± 0.4 kg/m3.

In the case of `CCO` [ethanol], the surface tension liquid-gas is reported as 22.11 ± 0.31 mN/m (298.15 K), 21.13 ± 0.3 mN/m (308.15 K) and 20.48 ± 0.3 mN/m (318.15 K). Also, the mass density is, setting by setting: (298.15 K) 784.7 ± 0.4 kg/m3; (308.15 K) 776.2 ± 0.4 kg/m3; (318.15 K) 767 ± 0.4 kg/m3.

Take `CO` [methanol]: the surface tension liquid-gas (298.15 K) came out at 22.22 ± 0.31 mN/m, the surface tension liquid-gas (308.15 K) is reported as 21.46 ± 0.3 mN/m and the surface tension liquid-gas (318.15 K) worked out at 20.46 ± 0.3 mN/m. The mass density was 786.4 ± 0.4 kg/m3 (298.15 K), 776.9 ± 0.4 kg/m3 (308.15 K) and 767.2 ± 0.4 kg/m3 (318.15 K).

Consider `O` [water], for which the surface tension liquid-gas runs as follows: (298.15 K) 71.85 ± 0.78 mN/m; (308.15 K) 70.48 ± 0.77 mN/m; (318.15 K) 68.89 ± 0.75 mN/m. The mass density (308.15 K) was 994.1 ± 0.9 kg/m3.
